“And” between values parts separate entries of the source, which are not always exact repeats. Identical values can stand only once.

What is called Kd is the constant that tells how readily two partners part at equilibrium. A low value points to a tighter complex.

The target in one data set is T1, HECT domain of E6AP (Homo sapiens, UniProt Q05086).
T1 construct: serial dilution of E6AP HECT domain; inferred from pET28a vector and Ni-NTA purification; made in house; host or cells: E. coli BL21 (DE3) pLysS, plasmid pET28a-E6AP HECT
T1 sequence (Q05086 518-875 limits assumed): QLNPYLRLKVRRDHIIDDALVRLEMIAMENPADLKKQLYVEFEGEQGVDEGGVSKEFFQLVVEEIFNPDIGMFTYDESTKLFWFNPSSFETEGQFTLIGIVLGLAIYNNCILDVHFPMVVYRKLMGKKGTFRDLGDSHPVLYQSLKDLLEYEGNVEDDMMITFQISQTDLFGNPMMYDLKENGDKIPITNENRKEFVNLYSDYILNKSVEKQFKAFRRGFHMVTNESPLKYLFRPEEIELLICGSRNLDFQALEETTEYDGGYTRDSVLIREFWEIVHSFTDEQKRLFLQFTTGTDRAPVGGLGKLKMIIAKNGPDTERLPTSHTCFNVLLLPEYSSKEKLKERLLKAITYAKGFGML
Briefly: Fluorescence polarization binding affinity of FITC-labeled peptides with the E6AP HECT domain. Particulars: Kd of the peptide-HECT complex. The method, then: The library was screened based on the binding between the bead-anchored peptides with the HECT domain of E6AP with an N-terminal Flag tag that was recognized by an anti-Flag antibody labeled with AlexaFluor 488 that would emit green fluorescence. […] The peptide ligands from the screen were named P1-8 and they were resynthesized to measure their individual binding affinities with the HECT domain by fluorescence polarization (FP).
The binding affinity (Kd) of the peptides were measured by fluorescence polarization. Briefly, a constant amount of the 100 nM FITC-labeled cyclic peptide was incubated with a serial dilution of E6AP HECT domain. The Kd values was calculated using the following equation, in which the Lst and x refer to the concentration of peptide and protein, respectively.
A general note: Fluorescence polarisation rises when a labelled molecule tumbles more slowly, as on binding a larger partner.

For another data set, the system named is pronase. Description: Enzymatic stability study with pronase (HPLC, MS). It is filed as in vitro ADME. The settings on record: 0.1 mg/mL pronase, 37° C., 24 h. How it is done: (§1) A distinctive characteristic of γ-AA peptides compared with canonical peptides is their remarkable resistance to protease. To assay the stability of P6 in presence of protease, P6 was incubated with 0.1 mg/mL pronase at 37° C. for 24 h.
0.01 mg/mL P6 was incubated with 0.1 mg/mL pronase in 100 mM ammonium bicarbonate buffer (pH 7.8) at 37° C. for 24 h. The reaction mixture was concentrated in a speed vacuum to remove the water and ammonium bicarbonate. The remains were dissolved in 100 μL H2O/CH3CN and analyzed by a Waters analytical HPLC system with a 1 mL/min flow rate and 5-100% linear gradient of solvent B (0.1% TFA in acetonitrile) in A (0.1% TFA in water) over the duration of 50 min. The UV detector was set to 215 nm.

Data set [1] is described as follows: Serum stability assay (25% serum, HPLC). Particulars: 25% serum (v/v), 37° C., 24 h. Type of data set: in vitro ADME, human. How it is done:
as §1
The serum stabilities of peptides were determined in 25% (v/v) aqueous pooled serum from human male AB plasma (Sigma-Aldrich, Milan, Italy). 1 mg P6 was dissolved in 50 μL CH3CN/H2O (70:30, v/v) and then diluted in serum and incubated at 37° C. for 24 h. Then, 100 μL of solution was added to 100 μL of CH3CN on ice for 15 min and was centrifuged at 4° C. for 10 min. The supernatant was then analyzed by a Waters analytical HPLC system with a 1 mL/min flow rate and 5-100% linear gradient of solvent B (0.1% TFA in acetonitrile) in A (0.1% TFA in water) over the duration of 50 min. The UV detector was set to 215 nm.

In the case of `CC(C)C[C@H]1CN(CC(N)=O)C(=O)CCSCc2ccc(cc2)C(=O)N[C@@H](C)CN(C(=O)Cc2ccc3ccccc3c2)CC(=O)N[C@@H](CC(C)C)CN(C(=O)CCc2ccccc2)CC(=O)N[C@@H](Cc2ccccc2)CN(C(=O)Cc2ccc3c(c2)OCO3)CC(=O)N1` [P3], the Kd on HECT domain of E6AP was in the range of 80 to 218 nM. On the same count and under the same terms, with `CC(C)C[C@H]1CN(CC(N)=O)C(=O)CCSCc2ccc(cc2)C(=O)N[C@@H](Cc2ccccc2)CN(C(=O)Cc2ccc3ccccc3c2)CC(=O)N[C@@H](CC(C)C)CN(C(=O)CCC2CCCCC2)CC(=O)N[C@@H](Cc2ccccc2)CN(C(=O)Cc2ccc3c(c2)OCO3)CC(=O)N1` [P4] the figure was 80 to 218 nM; with `COc1cc(CC(=O)N2CC(=O)N[C@@H](Cc3ccccc3)CN(C(=O)CC3CC3)CC(=O)N[C@@H](CC(C)C)CN(CC(N)=O)C(=O)CCSCc3ccc(cc3)C(=O)N[C@@H](CCC(=O)O)CN(C(=O)Cc3ccc4c(c3)OCO4)CC(=O)N[C@@H](CC(C)C)C2)cc(OC)c1` [P5], 80 to 218 nM.

Consider `COc1cc(CC(=O)N2CC(=O)N[C@@H](Cc3ccccc3)CN(C(=O)CC3CC3)CC(=O)N[C@@H](CC(C)C)CN(CC(N)=O)C(=O)CCSCc3ccc(cc3)C(=O)N[C@@H](CCCCN)CN(C(=O)Cc3ccc4ccccc4c3)CC(=O)N[C@@H](CC(C)C)C2)cc(OC)c1` [P6], for which the Kd at HECT domain of E6AP was 80 to 218 nM and 218 nM. Besides, in the data set on pronase, the “stability in presence of protease” value was “resistant to protease cleavage”. Moreover, the “stability in human serum” value in data set [1] is given as “stability was confirmed”. At HECT domain of E6AP, `COc1cc(CC(=O)N2CC(=O)N[C@@H](C)CN(C(=O)Cc3cc(OC)cc(OC)c3)CC(=O)N[C@@H](CC(C)C)CN(CC(N)=O)C(=O)CCSCc3ccc(cc3)C(=O)N[C@@H](Cc3ccccc3)CN(C(=O)Cc3ccc4c(c3)OCO4)CC(=O)N[C@@H](Cc3ccccc3)C2)cc(OC)c1` [P7] showed a Kd of 80 to 218 nM. In turn, `C[C@H]1CN(C(=O)Cc2ccc3c(c2)OCO3)CC(=O)N[C@@H](Cc2ccccc2)CN(C(=O)Cc2ccc3ccccc3c2)CC(=O)N[C@@H](CCC(=O)O)CN(C(=O)CC2CC2)CC(=O)N[C@@H](Cc2ccccc2)CN(CC(N)=O)C(=O)CCSCc2ccc(cc2)C(=O)N1` [P8] returned a Kd at HECT domain of E6AP of 80 to 218 nM.

Values taken from patent US20240368219A1, “ACTIVATION OF E6AP/UBE3A-MEDIATED PROTEIN UBIQ[…] D[…] BY A CYCLIC GAMMA-AA PEPTIDE” (University of South Florida, priority 2022, published 2024).
